Reference: ChEMBL document CHEMBL4196088, “Induction of cell killing and autophagy by amphiphilic pyrrolidine derivatives on human pancreatic cancer cells” (Eur J Med Chem, 2018)
Calls of active or inactive are those of the source. The rule behind the calls is not given here.

Legend:
SK-BR-3 = experiment: Growth inhibition of human SKBR3 cells after 72 hrs; assay type: functional, cell-based; conditions: SK-BR-3, 72 h
BXPC-3 [1] = experiment: Induction of apoptosis in human BxPC3 cells assessed as accumulation at sub-G0/G1 phase at 20 uM after 24 hrs by propidium iodide staining based flow cytometry (reference value: 2.3%); assay type: functional
BXPC-3 [2] = experiment: Induction of apoptosis in human BxPC3 cells assessed as accumulation at sub-G0/G1 phase at 20 uM after 48 hrs by propidium iodide staining based flow cytometry (reference value: 2.8%); assay type: functional
BXPC-3 [3] = experiment: Induction of apoptosis in human BxPC3 cells assessed as accumulation at sub-G0/G1 phase at 20 uM after 72 hrs by propidium iodide staining based flow cytometry (reference value: 3.4%); assay type: functional
BXPC-3 [4] = experiment: Induction of apoptosis in human BxPC3 cells assessed as accumulation at sub-G0/G1 phase harboring pSFFV-Bcl-XL at 20 uM after 24 hrs by propidium iodide staining based flow cytometry (reference value: 1.2%); assay type: functional
BXPC-3 [5] = experiment: Induction of apoptosis in human BxPC3 cells assessed as accumulation at sub-G0/G1 phase harboring pSFFV-Bcl-XL at 20 uM after 48 hrs by propidium iodide staining based flow cytometry (reference value: 1.3%); assay type: functional
BXPC-3 [6] = experiment: Induction of apoptosis in human BxPC3 cells assessed as accumulation at sub-G0/G1 phase harboring pSFFV-Bcl-XL at 20 uM after 72 hrs by propidium iodide staining based flow cytometry (reference value: 1.3%); assay type: functional
PANC-1 [7] = experiment: Induction of apoptosis in human PANC1 cells assessed as accumulation at sub-G0/G1 phase at 20 uM after 24 hrs by propidium iodide staining based flow cytometry (reference value: 0.6 to 0.7%); assay type: functional
PANC-1 [8] = experiment: Induction of apoptosis in human PANC1 cells assessed as accumulation at sub-G0/G1 phase at 20 uM after 48 hrs by propidium iodide staining based flow cytometry (reference value: 0.2 to 2.9%); assay type: functional
PANC-1 [9] = experiment: Induction of apoptosis in human PANC1 cells assessed as accumulation at sub-G0/G1 phase at 20 uM after 72 hrs by propidium iodide staining based flow cytometry (reference value: 1.6 to 3.2%); assay type: functional
PK9 [10] = experiment: Induction of apoptosis in human PK9 cells assessed as accumulation at sub-G0/G1 phase at 20 uM after 24 hrs by propidium iodide staining based flow cytometry (reference value: 2.2%); assay type: functional
PK9 [11] = experiment: Induction of apoptosis in human PK9 cells assessed as accumulation at sub-G0/G1 phase at 20 uM after 48 hrs by propidium iodide staining based flow cytometry (reference value: 3.8%); assay type: functional
PK9 [12] = experiment: Induction of apoptosis in human PK9 cells assessed as accumulation at sub-G0/G1 phase at 20 uM after 72 hrs by propidium iodide staining based flow cytometry (reference value: 4%); assay type: functional
[13] = Induction of apoptosis in HPNE cells assessed as accumulation at sub-G0/G1 phase at 20 uM after 24 hrs by propidium iodide staining based flow cytometry (reference value: 0.6%); assay type: cell-based; conditions: human
[14] = Induction of apoptosis in HPNE cells assessed as accumulation at sub-G0/G1 phase at 20 uM after 48 hrs by propidium iodide staining based flow cytometry (reference value: 0.7%); assay type: cell-based; conditions: human
[15] = Induction of apoptosis in HPNE cells assessed as accumulation at sub-G0/G1 phase at 20 uM after 72 hrs by propidium iodide staining based flow cytometry (reference value: 6.6%); assay type: cell-based; conditions: human
PANC-1 [16] = experiment: Induction of apoptosis in human PANC1 cells assessed as accumulation at sub-G0/G1 phase at 10 uM after 24 hrs by propidium iodide staining based flow cytometry (reference value: 0.6 to 0.7%); assay type: functional
PANC-1 [17] = experiment: Induction of apoptosis in human PANC1 cells assessed as accumulation at sub-G0/G1 phase at 10 uM after 48 hrs by propidium iodide staining based flow cytometry (reference value: 0.2 to 2.9%); assay type: functional
PANC-1 [18] = experiment: Induction of apoptosis in human PANC1 cells assessed as accumulation at sub-G0/G1 phase at 10 uM after 72 hrs by propidium iodide staining based flow cytometry (reference value: 1.6 to 3.2%); assay type: functional
BXPC-3 [19] = experiment: Induction of apoptosis in human BxPC3 cells assessed as accumulation at sub-G0/G1 phase at 10 uM after 24 hrs by propidium iodide staining based flow cytometry (reference value: 1.8%); assay type: functional
BXPC-3 [20] = experiment: Induction of apoptosis in human BxPC3 cells assessed as accumulation at sub-G0/G1 phase at 10 uM after 48 hrs by propidium iodide staining based flow cytometry (reference value: 2.8%); assay type: functional
BXPC-3 [21] = experiment: Induction of apoptosis in human BxPC3 cells assessed as accumulation at sub-G0/G1 phase at 10 uM after 72 hrs by propidium iodide staining based flow cytometry (reference value: 3.4%); assay type: functional
BXPC-3 [22] = experiment: Induction of apoptosis in human BxPC3 cells harboring pSFFV-Bcl-XL assessed as accumulation at sub-G0/G1 phase at 10 uM after 24 hrs by propidium iodide staining based flow cytometry (reference value: 1.5%); assay type: functional
BXPC-3 [23] = experiment: Induction of apoptosis in human BxPC3 cells harboring pSFFV-Bcl-XL assessed as accumulation at sub-G0/G1 phase at 10 uM after 48 hrs by propidium iodide staining based flow cytometry (reference value: 1.9%); assay type: functional
BXPC-3 [24] = experiment: Induction of apoptosis in human BxPC3 cells harboring pSFFV-Bcl-XL assessed as accumulation at sub-G0/G1 phase at 10 uM after 72 hrs by propidium iodide staining based flow cytometry (reference value: 2%); assay type: functional
PK9 [25] = experiment: Induction of apoptosis in human PK9 cells assessed as accumulation at sub-G0/G1 phase at 10 uM after 24 hrs by propidium iodide staining based flow cytometry (reference value: 2.2%); assay type: functional
PK9 [26] = experiment: Induction of apoptosis in human PK9 cells assessed as accumulation at sub-G0/G1 phase at 10 uM after 48 hrs by propidium iodide staining based flow cytometry (reference value: 3.8%); assay type: functional
PK9 [27] = experiment: Induction of apoptosis in human PK9 cells assessed as accumulation at sub-G0/G1 phase at 10 uM after 72 hrs by propidium iodide staining based flow cytometry (reference value: 4%); assay type: functional
[28] = Induction of apoptosis in HPNE cells assessed as accumulation at sub-G0/G1 phase at 10 uM after 24 hrs by propidium iodide staining based flow cytometry (reference value: 0.6%); assay type: cell-based; conditions: human
[29] = Induction of apoptosis in HPNE cells assessed as accumulation at sub-G0/G1 phase at 10 uM after 48 hrs by propidium iodide staining based flow cytometry (reference value: 0.7%); assay type: cell-based; conditions: human
[30] = Induction of apoptosis in HPNE cells assessed as accumulation at sub-G0/G1 phase at 10 uM after 72 hrs by propidium iodide staining based flow cytometry (reference value: 6.6%); assay type: cell-based; conditions: human
BXPC-3 [31] = experiment: Growth inhibition of human BxPC3 cells after 72 hrs by XTT assay; assay type: functional, cell-based; conditions: BXPC-3, 72 h
PANC-1 [32] = experiment: Growth inhibition of human PANC1 cells after 72 hrs by XTT assay; assay type: functional, cell-based; conditions: PANC-1, 72 h
[33] = Induction of apoptosis in HPNE cells at 5 to 40 uM after 24 to 72 hrs by Annexin V/7-AAD staining based flow cytometry; assay type: cell-based; conditions: human
Fibroblast = experiment: Induction of apoptosis in human primary fibroblasts at 5 to 40 uM after 24 to 72 hrs by Annexin V/7-AAD staining based flow cytometry; assay type: cell-based
PK9 [34] = experiment: Induction of apoptosis in human PK9 cells at 5 to 40 uM after 24 to 72 hrs by Annexin V/7-AAD staining based flow cytometry; assay type: functional, cell-based
MIA PaCa-2 = experiment: Growth inhibition of human MIAPaCa2 cells after 72 hrs by MTT assay; assay type: functional, cell-based; conditions: MIA PaCa-2, 72 h
PK9 [35] = experiment: Growth inhibition of human PK9 cells after 72 hrs by MTT assay; assay type: functional, cell-based; conditions: PK9, 72 h

Compound | IC50 (SK-BR-3) | Activity (BXPC-3 [1]) | Activity (BXPC-3 [2]) | Activity (BXPC-3 [3]) | Activity (BXPC-3 [4]) | Activity (BXPC-3 [5]) | Activity (BXPC-3 [6]) | Activity (PANC-1 [7]) | Activity (PANC-1 [8]) | Activity (PANC-1 [9]) | Activity (PK9 [10]) | Activity (PK9 [11]) | Activity (PK9 [12]) | Activity [13] | Activity [14] | Activity [15] | Activity (PANC-1 [16]) | Activity (PANC-1 [17]) | Activity (PANC-1 [18]) | Activity (BXPC-3 [19]) | further results
CCCCCCCCCCCCCCCCOC[C@H]1NC[C@H](O)[C@@H]1O | 50 µM | 7.1% | 16.9% | 21.7% | 4.4% | 4.8% | 7.6% | 4.4% | 4.8% | 12.8% | 2.6% | 4.6% | 2.8% | 53.9% | 62.1% | 66.8% | 3.1% | 3.5% | 4.1% | 3.5% | Activity (BXPC-3 [20]): 5.7%; Activity (BXPC-3 [21]): 7.5%; Activity (BXPC-3 [22]): 3.9%; Activity (BXPC-3 [23]): 4.2%; Activity (BXPC-3 [24]): 5.8%; Activity (PK9 [25]): 2%; Activity (PK9 [26]): 3.5%; Activity (PK9 [27]): 2.6%; Activity [28]: 2.6%; Activity [29]: 2.2%; Activity [30]: 3.1%
O[C@H]1[C@@H](O)CN[C@@H]1COCCCCCCCC/C=C/c1ccc(Oc2ccccc2)cc1 | 15 µM | 8.7% | 16.2% | 20.3% | 4.4% | 4.5% | 4.3% | 9.9% | 33.1% | 29.3% | 4.6% | 5.2% | 6.2% | 79.1% | 81.4% | 85.8% | 3.1% | 3.8% | 4.4% | 3.9% | Activity (BXPC-3 [20]): 6.6%; Activity (BXPC-3 [21]): 8.3%; Activity (BXPC-3 [22]): 3.6%; Activity (BXPC-3 [23]): 4.8%; Activity (BXPC-3 [24]): 4.8%; Activity (PK9 [25]): 3.4%; Activity (PK9 [26]): 4.4%; Activity (PK9 [27]): 3.1%; Activity [28]: 6.5%; Activity [29]: 6.8%; Activity [30]: 7.9%
Cl.NCC(=O)N1CCC[C@H]1COCCCCCCCCC/C=C/c1ccc(-c2ccccc2)cc1 | – | – | – | – | – | – | – | 1.6% | 13.3% | 30.5% | – | – | – | – | – | – | 2% | 16.6% | 35.8% | – | IC50 (BXPC-3 [31]): 7 µM; IC50 (PANC-1 [32]): 6.3 µM; Activity [33]: Toxic; Activity (Fibroblast): Toxic; Activity (PK9 [34]): Active
Cl.NCC(=O)N1CCC[C@H]1COCCCCCC/C=C/c1ccc(-c2ccccc2)cc1 | – | – | – | – | – | – | – | 1.5% | 6.3% | 24.7% | – | – | – | – | – | – | 0.9% | 6.1% | 9.5% | – | IC50 (BXPC-3 [31]): 6 µM; IC50 (PANC-1 [32]): 5.7 µM; Activity [33]: Toxic; Activity (Fibroblast): Toxic; Activity (PK9 [34]): Active
CCCCCC/C=C/CCCCCCCCOC[C@H]1NC[C@H](O)[C@@H]1O | 10 µM | 9.5% | 19.6% | 21.5% | 4.9% | 5% | 3.8% | 7.9% | 23.4% | 33.7% | 2.2% | 4.3% | 5.7% | 46.9% | 65.7% | 70.3% | 5.7% | 9.1% | 6.4% | 5.3% | IC50 (BXPC-3 [31]): > 100 µM; IC50 (PANC-1 [32]): 80 µM; IC50 (MIA PaCa-2): > 100 µM; IC50 (PK9 [35]): > 100 µM; Activity (BXPC-3 [20]): 7.3%; Activity (BXPC-3 [21]): 7.8%; Activity (BXPC-3 [22]): 4.3%; Activity (BXPC-3 [23]): 1.9%; Activity (BXPC-3 [24]): 3.8%; Activity (PK9 [25]): 3.4%; Activity (PK9 [26]): 3.8%; Activity (PK9 [27]): 2.7%; Activity [28]: 3.4%; Activity [29]: 2%; Activity [30]: 2.5%
